Laboratory results: article PMC7832312, “Enhancing the Physiochemical Properties of Puerarin via L-Proline Co-Crystallization: Synthesis, Characterization, and Dissolution Studies of Two Phases of Pharmaceutical Co-Crystals” (International Journal of Molecular Sciences, 2021)
Values after ≈ are worked out from the molar mass of the structure shown.

Assays:
[1] = Dissolution rate measurement (UV, 250 mL medium, 150 RPM, 2 h, 37 °C); format: physicochemical; settings: for Time-dependent dissolution rate: 37 °C
Protocol: The solubility and dissolution studies of pure PUE, I, and II were measured using a Thermo Scientific Evolution 300 UV spectrometer in deionized water at pH 7.0, gastrointestinal tract at pH 1.2, and phosphate buffer at pH 6.8 solution at 37 °C. The concentration was calculated utilizing a standard curve, which was made by measuring the absorbance of different concentrations at their λmax. A superfluity sum of the sample was added to 10 mL of H2O medium, pH 1.2 and pH 6.8 phosphate, respectively.
(§1) The oversaturated solution was stirred at 500 RPM by magnetic stirring at 37 °C for 24 h and the suspension was filtered through Whatman’s […] syringe channel, diluted sufficiently and the absorbance was measured at their λmax. For the dissolution rate, the sample was specifically poured into 250 mL pH 7.0 water, pH 1.2 gastrointestinal tract, and pH 6.8 phosphates medium and then stirred at 150 RPM for 2h at 37 °C. Each solution was measured by the absorbance at λmax. At customary interims, the solution was replenished with 3 mL of the respective blank solution to maintain an overall steady volume.

CT-26 cancer cell lines = experiment: Cytotoxicity evaluation by MTT assay, CT-26; format: cell-based, murine; settings: CT-26, culturing 24 h
Protocol: (§2) CT-26 and HEK-293 cell line was purchased from American Type Culture Collection (Manassas, VA, USA). The cell lines were cultured in RPMI 1640 (for CT-26) or DMEM (for HEK-293) containing 10% fetal bovine serum (FBS, Zhejiang Tianhang Biotechnology Co. Ltd., Hangzhou, China) and 1% penicillin/streptomycin (Zhejiang Tianhang Biotechnology Co. Ltd., Hangzhou, China). Cells grew as a monolayer and were detached upon confluence using trypsin (0.5% w/v in PBS, Zhejiang Tianhang Biotechnology Co. Ltd., Hangzhou, China). The cells were harvested from the cell culture medium by incubating in trypsin solution for 3 min. The cells were centrifuged, and the supernatant discarded. A 3 mL portion of serum-supplemented cell culture medium was added to neutralize any residual trypsin. The cells were re-suspended in serum-supplemented RPMI 1640 (for CT-26) or DMEM (for HEK-293) at a concentration of 5 × 10^4 cells per 1 mL. Cells were cultured at 37 °C and 5% CO2 for MTT studies.
(§3) The CT-26 or HEK-293 cells were seeded at a density of 1 × 10^4 cells per well in 100 µL of complete RPMI 1640 (CT-26) or DMEM (for HEK-293), and cultured for 16 h for attachment. The culture medium was then replaced by a serum-free medium containing various concentrations of pristine PUE, I, and II. […] After incubating the cells at 37 °C for 4 h, the MTT solution was removed and DMSO (100 μL) added to dissolve the formazan crystals formed, and the microplates were agitated for 5 min at a medium rate before the spectrophotometric measurement at a wavelength of 570 nm on a microplate reader. […] The relative cell viability (%) related to control cells was calculated by the formula below: V%=[A]experimental−[A]blank/[A]control−[A]blank×100% where V% is the percentage of cell viability, [A]experimental is the absorbance of the wells culturing the treated cells, [A]blank is the absorbance of the blank, and [A]control is the absorbance of the wells culturing untreated cells.

HEK-293 cell lines = experiment: Cytotoxicity evaluation by MTT assay, HEK-293; format: cell-based, human; settings: HEK-293, culturing 24 h
Protocol: as §2, §3

[2] = Solubility measurement (UV, oversaturated solution stirred 24 h at 37 °C); format: physicochemical; settings: thermodynamic from solid, average of three replicates
Protocol: The concentration was calculated utilizing a standard curve, which was made by measuring the absorbance of different concentrations at their λmax. A superfluity sum of the sample was added to 10 mL of H2O medium, pH 1.2 and pH 6.8 phosphate, respectively.
as §1

[3] = cited from earlier work

## O=C(O)[C@@H]1CCCN1.O=c1c(-c2ccc(O)cc2)coc2c([C@@H]3O[C@H](CO)[C@@H](O)[C@H](O)[C@H]3O)c(O)ccc12 [I, [PUE][PRO]]
[1]; Water, 5 min
  Time-dependent dissolution rate: 0.220 mg/mL
[1]; Water, 10 min
  Time-dependent dissolution rate: 0.343 mg/mL
[1]; Water, 15 min
  Time-dependent dissolution rate: 0.452 mg/mL
[1]; Water, 20 min
  Time-dependent dissolution rate: 0.533 mg/mL
[1]; Water, 25 min
  Time-dependent dissolution rate: 0.591 mg/mL
[1]; Water, 30 min
  Time-dependent dissolution rate: 0.674 mg/mL
[1]; Water, 40 min
  Time-dependent dissolution rate: 0.767 mg/mL
[1]; Water, 50 min
  Time-dependent dissolution rate: 0.945 mg/mL
[1]; Water, 60 min
  Time-dependent dissolution rate: 1.045 mg/mL
[1]; Water, 80 min
  Time-dependent dissolution rate: 1.373 mg/mL
[1]; Water, 100 min
  Time-dependent dissolution rate: 1.503 mg/mL
[1]; Water, 120 min
  Time-dependent dissolution rate: 1.645 mg/mL
[1]; pH 1.2, 5 min
  Time-dependent dissolution rate: 0.013 mg/mL
[1]; pH 1.2, 10 min
  Time-dependent dissolution rate: 0.035 mg/mL
[1]; pH 1.2, 15 min
  Time-dependent dissolution rate: 0.122 mg/mL
[1]; pH 1.2, 20 min
  Time-dependent dissolution rate: 0.192 mg/mL
[1]; pH 1.2, 25 min
  Time-dependent dissolution rate: 0.249 mg/mL
[1]; pH 1.2, 30 min
  Time-dependent dissolution rate: 0.356 mg/mL
[1]; pH 1.2, 40 min
  Time-dependent dissolution rate: 0.588 mg/mL
[1]; pH 1.2, 50 min
  Time-dependent dissolution rate: 0.711 mg/mL
[1]; pH 1.2, 60 min
  Time-dependent dissolution rate: 0.958 mg/mL
[1]; pH 1.2, 80 min
  Time-dependent dissolution rate: 1.159 mg/mL
[1]; pH 1.2, 100 min
  Time-dependent dissolution rate: 1.383 mg/mL
[1]; pH 1.2, 120 min
  Time-dependent dissolution rate: 1.603 mg/mL
[1]; pH 6.8, 5 min
  Time-dependent dissolution rate: 0.207 mg/mL
[1]; pH 6.8, 10 min
  Time-dependent dissolution rate: 0.291 mg/mL
[1]; pH 6.8, 15 min
  Time-dependent dissolution rate: 0.384 mg/mL
[1]; pH 6.8, 20 min
  Time-dependent dissolution rate: 0.493 mg/mL
[1]; pH 6.8, 25 min
  Time-dependent dissolution rate: 0.570 mg/mL
[1]; pH 6.8, 30 min
  Time-dependent dissolution rate: 0.664 mg/mL
[1]; pH 6.8, 40 min
  Time-dependent dissolution rate: 0.786 mg/mL
[1]; pH 6.8, 50 min
  Time-dependent dissolution rate: 0.850 mg/mL
[1]; pH 6.8, 60 min
  Time-dependent dissolution rate: 0.918 mg/mL
[1]; pH 6.8, 80 min
  Time-dependent dissolution rate: 1.183 mg/mL
[1]; pH 6.8, 100 min
  Time-dependent dissolution rate: 1.265 mg/mL
[1]; pH 6.8, 120 min
  Time-dependent dissolution rate: 1.303 mg/mL
CT-26 cancer cell lines
  cytotoxicity (MTT cell viability): negligible cytotoxicity
HEK-293 cell lines
  cytotoxicity (MTT cell viability): negligible cytotoxicity

## CCO.O.O.O=C(O)[C@@H]1CCCN1.O=c1c(-c2ccc(O)cc2)coc2c([C@@H]3O[C@H](CO)[C@@H](O)[C@H](O)[C@H]3O)c(O)ccc12.O=c1c(-c2ccc(O)cc2)coc2c([C@@H]3O[C@H](CO)[C@@H](O)[C@H](O)[C@H]3O)c(O)ccc12 [II, [PUE]2[PRO]∙EtOH∙(H2O)2]
[1]; Water, 5 min
  Time-dependent dissolution rate: 0.131 mg/mL
[1]; Water, 10 min
  Time-dependent dissolution rate: 0.210 mg/mL
[1]; Water, 15 min
  Time-dependent dissolution rate: 0.281 mg/mL
[1]; Water, 20 min
  Time-dependent dissolution rate: 0.457 mg/mL
[1]; Water, 25 min
  Time-dependent dissolution rate: 0.567 mg/mL
[1]; Water, 30 min
  Time-dependent dissolution rate: 0.701 mg/mL
[1]; Water, 40 min
  Time-dependent dissolution rate: 1.450 mg/mL
[1]; Water, 50 min
  Time-dependent dissolution rate: 2.110 mg/mL
[1]; Water, 60 min
  Time-dependent dissolution rate: 2.490 mg/mL
[1]; Water, 80 min
  Time-dependent dissolution rate: 2.840 mg/mL
[1]; Water, 100 min
  Time-dependent dissolution rate: 3.203 mg/mL
[1]; Water, 120 min
  Time-dependent dissolution rate: 3.410 mg/mL
[1]; pH 1.2, 5 min
  Time-dependent dissolution rate: 0.171 mg/mL
[1]; pH 1.2, 10 min
  Time-dependent dissolution rate: 0.240 mg/mL
[1]; pH 1.2, 15 min
  Time-dependent dissolution rate: 0.337 mg/mL
[1]; pH 1.2, 20 min
  Time-dependent dissolution rate: 0.417 mg/mL
[1]; pH 1.2, 25 min
  Time-dependent dissolution rate: 0.479 mg/mL
[1]; pH 1.2, 30 min
  Time-dependent dissolution rate: 0.534 mg/mL
[1]; pH 1.2, 40 min
  Time-dependent dissolution rate: 1.005 mg/mL
[1]; pH 1.2, 50 min
  Time-dependent dissolution rate: 1.342 mg/mL
[1]; pH 1.2, 60 min
  Time-dependent dissolution rate: 1.489 mg/mL
[1]; pH 1.2, 80 min
  Time-dependent dissolution rate: 1.683 mg/mL
[1]; pH 1.2, 100 min
  Time-dependent dissolution rate: 1.923 mg/mL
[1]; pH 1.2, 120 min
  Time-dependent dissolution rate: 2.005 mg/mL
[1]; pH 1.2, pH 6.8, H2O pH 7.0
  dissolution rate compared with the other forms: higher dissolution rate than both I and PUE
[1]; pH 6.8, 5 min
  Time-dependent dissolution rate: 0.121 mg/mL
[1]; pH 6.8, 10 min
  Time-dependent dissolution rate: 0.212 mg/mL
[1]; pH 6.8, 15 min
  Time-dependent dissolution rate: 0.352 mg/mL
[1]; pH 6.8, 20 min
  Time-dependent dissolution rate: 0.446 mg/mL
[1]; pH 6.8, 25 min
  Time-dependent dissolution rate: 0.537 mg/mL
[1]; pH 6.8, 30 min
  Time-dependent dissolution rate: 0.861 mg/mL
[1]; pH 6.8, 40 min
  Time-dependent dissolution rate: 1.059 mg/mL
[1]; pH 6.8, 50 min
  Time-dependent dissolution rate: 1.503 mg/mL
[1]; pH 6.8, 60 min
  Time-dependent dissolution rate: 2.210 mg/mL
[1]; pH 6.8, 80 min
  Time-dependent dissolution rate: 2.723 mg/mL
[1]; pH 6.8, 100 min
  Time-dependent dissolution rate: 3.138 mg/mL
[1]; pH 6.8, 120 min
  Time-dependent dissolution rate: 3.370 mg/mL
CT-26 cancer cell lines
  cytotoxicity (MTT cell viability): negligible cytotoxicity
HEK-293 cell lines
  cytotoxicity (MTT cell viability): negligible cytotoxicity

## O=c1c(-c2ccc(O)cc2)coc2c([C@@H]3O[C@H](CO)[C@@H](O)[C@H](O)[C@H]3O)c(O)ccc12 [PUE, Puerarin]
[2]; aqueous buffer, phosphate buffer at pH 6.8, 37 °C
  solubility at 24 h: 2.49 mg/mL (≈ 5.97 mM)
[2]; deionized water, Distilled Water (pH 7.0), 37 °C
  solubility at 24 h: 2.53 mg/mL (≈ 6.07 mM)
[2]; gastrointestinal tract medium pH 1.2, simulated gastric fluid, gastrointestinal tract at pH 1.2, 37 °C
  solubility at 24 h: 1.51 mg/mL (≈ 3.63 mM)
[1]; Water, 5 min
  Time-dependent dissolution rate: 0.062 mg/mL
[1]; Water, 10 min
  Time-dependent dissolution rate: 0.109 mg/mL
[1]; Water, 15 min
  Time-dependent dissolution rate: 0.190 mg/mL
[1]; Water, 20 min
  Time-dependent dissolution rate: 0.250 mg/mL
[1]; Water, 25 min
  Time-dependent dissolution rate: 0.294 mg/mL
[1]; Water, 30 min
  Time-dependent dissolution rate: 0.506 mg/mL
[1]; Water, 40 min
  Time-dependent dissolution rate: 0.611 mg/mL
[1]; Water, 50 min
  Time-dependent dissolution rate: 0.692 mg/mL
[1]; Water, 60 min
  Time-dependent dissolution rate: 0.821 mg/mL
[1]; Water, 80 min
  Time-dependent dissolution rate: 0.896 mg/mL
[1]; Water, 100 min
  Time-dependent dissolution rate: 0.935 mg/mL
[1]; Water, 120 min
  Time-dependent dissolution rate: 1.031 mg/mL
[1]; pH 1.2, 5 min
  Time-dependent dissolution rate: 0.008 mg/mL
[1]; pH 1.2, 10 min
  Time-dependent dissolution rate: 0.019 mg/mL
[1]; pH 1.2, 15 min
  Time-dependent dissolution rate: 0.023 mg/mL
[1]; pH 1.2, 20 min
  Time-dependent dissolution rate: 0.030 mg/mL
[1]; pH 1.2, 25 min
  Time-dependent dissolution rate: 0.035 mg/mL
[1]; pH 1.2, 30 min
  Time-dependent dissolution rate: 0.043 mg/mL
[1]; pH 1.2, 40 min
  Time-dependent dissolution rate: 0.163 mg/mL
[1]; pH 1.2, 50 min
  Time-dependent dissolution rate: 0.354 mg/mL
[1]; pH 1.2, 60 min
  Time-dependent dissolution rate: 0.394 mg/mL
[1]; pH 1.2, 80 min
  Time-dependent dissolution rate: 0.435 mg/mL
[1]; pH 1.2, 100 min
  Time-dependent dissolution rate: 0.568 mg/mL
[1]; pH 1.2, 120 min
  Time-dependent dissolution rate: 0.685 mg/mL
[1]; pH 6.8, 5 min
  Time-dependent dissolution rate: 0.078 mg/mL
[1]; pH 6.8, 10 min
  Time-dependent dissolution rate: 0.110 mg/mL
[1]; pH 6.8, 15 min
  Time-dependent dissolution rate: 0.168 mg/mL
[1]; pH 6.8, 20 min
  Time-dependent dissolution rate: 0.244 mg/mL
[1]; pH 6.8, 25 min
  Time-dependent dissolution rate: 0.274 mg/mL
[1]; pH 6.8, 30 min
  Time-dependent dissolution rate: 0.347 mg/mL
[1]; pH 6.8, 40 min
  Time-dependent dissolution rate: 0.415 mg/mL
[1]; pH 6.8, 50 min
  Time-dependent dissolution rate: 0.444 mg/mL
[1]; pH 6.8, 60 min
  Time-dependent dissolution rate: 0.504 mg/mL
[1]; pH 6.8, 80 min
  Time-dependent dissolution rate: 0.560 mg/mL
[1]; pH 6.8, 100 min
  Time-dependent dissolution rate: 0.641 mg/mL
[1]; pH 6.8, 120 min
  Time-dependent dissolution rate: 0.785 mg/mL
CT-26 cancer cell lines
  cytotoxicity (MTT cell viability): negligible cytotoxicity
HEK-293 cell lines
  cytotoxicity (MTT cell viability): negligible cytotoxicity
[3]
  elimination half-life: short
  oral bioavailability: about 7%
